This is an account of results in ChEMBL document CHEMBL3638862, “Radiolabeled PDE10 inhibitors” (2014).

For the test, the target named is cAMP and cAMP-inhibited cGMP 3',5'-cyclic phosphodiesterase 10A (Homo sapiens, UniProt Q9Y233). In words: Florescence Polarization Assay: The activity of the compounds in accordance with the present invention as PDE10 inhibitors may be readily determined without undue experimentation using a fluorescence polarization (FP) methodology well known in the art (Huang, W., et al., J. Biomol Screen, 2002, 7: 215). […] PDE10A2 was amplified from human fetal brain cDNA (Clontech, Mountain View, Calif.) using a forward primer corresponding to nucleotides 56-77 of human PDE10A2 (Accession No. AF127480, Genbank Identifier 4894716), containing a Kozak consensus sequence.
Sequence of cAMP and cAMP-inhibited cGMP 3',5'-cyclic phosphodiesterase 10A (Q9Y233 whole entry): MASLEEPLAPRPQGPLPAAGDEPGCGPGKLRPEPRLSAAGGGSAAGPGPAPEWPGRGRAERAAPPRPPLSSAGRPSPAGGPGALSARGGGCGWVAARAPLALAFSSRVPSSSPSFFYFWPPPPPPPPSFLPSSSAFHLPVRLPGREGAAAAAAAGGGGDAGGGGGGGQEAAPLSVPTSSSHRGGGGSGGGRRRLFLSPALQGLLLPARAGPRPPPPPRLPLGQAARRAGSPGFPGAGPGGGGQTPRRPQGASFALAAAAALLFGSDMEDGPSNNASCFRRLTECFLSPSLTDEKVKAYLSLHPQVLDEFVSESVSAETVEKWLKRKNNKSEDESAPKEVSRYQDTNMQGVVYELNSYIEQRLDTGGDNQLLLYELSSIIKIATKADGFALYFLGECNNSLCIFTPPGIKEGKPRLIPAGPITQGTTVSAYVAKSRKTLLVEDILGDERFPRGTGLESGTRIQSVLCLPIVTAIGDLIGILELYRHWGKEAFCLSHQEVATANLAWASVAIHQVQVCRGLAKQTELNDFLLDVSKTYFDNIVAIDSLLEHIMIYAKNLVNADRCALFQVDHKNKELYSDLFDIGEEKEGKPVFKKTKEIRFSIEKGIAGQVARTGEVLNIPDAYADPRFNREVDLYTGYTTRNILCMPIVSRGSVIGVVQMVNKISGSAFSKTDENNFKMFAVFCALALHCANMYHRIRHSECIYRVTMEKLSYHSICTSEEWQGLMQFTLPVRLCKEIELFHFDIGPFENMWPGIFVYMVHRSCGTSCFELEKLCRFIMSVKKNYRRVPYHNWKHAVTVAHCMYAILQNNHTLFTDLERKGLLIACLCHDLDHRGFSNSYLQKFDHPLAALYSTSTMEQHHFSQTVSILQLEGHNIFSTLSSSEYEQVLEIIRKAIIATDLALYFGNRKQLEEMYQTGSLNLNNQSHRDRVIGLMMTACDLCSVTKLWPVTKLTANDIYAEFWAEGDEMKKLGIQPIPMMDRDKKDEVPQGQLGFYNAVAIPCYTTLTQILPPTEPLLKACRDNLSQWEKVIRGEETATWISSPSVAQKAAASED

`COc1ccc(-n2c(CCN3C(=O)c4cccc(OCC(F)(F)F)c4C3=O)nc3ccccc3c2=O)cc1` gave an inhibition constant (Ki) of 0.79 nM.

Broadly, the Ki is the equilibrium dissociation constant of an inhibitor or competing ligand from its target. Higher therefore signals weaker binding.
